Assay results published in patent publication US20110321190A1, “METHOD OF POSITIVE PLANT SELECTION USING SORBITOL DEHYDROGENASE” (Metabolix, Inc., priority 2009, published 2011).
Entries after “also recorded” stand apart in the source; their conditions may differ.

What was measured:
[1] = test system: switchgrass (Panicum virgatum L. cv. 'Alamo') callus cultures; assay: Growth of switchgrass callus cultures in the presence of different carbon sources; type: cell-based; conditions: wild-type callus; sole carbon source: maltose 83.3 mM, fructose 111 mM, sorbitol 41.2 mM; 4 weeks dark incubation at 28° C.
Description: The in vitro response of various plants grown on medium supplemented with different sugar sources was investigated. For these purposes, switchgrass (Panicum virgatum L. cv. ‘Alamo’) was chosen as a representative monocot species. Highly embryogenic callus cultures of switchgrass were initiated from mature caryopses according to established procedures (Denchev, P. D. and B. V. Conger, Crop Sci., 34: 1623-1627 (1994)) and transferred to callus multiplication media [media consists of MS basal salts (product#MS002, Caisson Laboratories, North Logan, Utah, USA), 6-benzylaminopurine (BAP, […]), 2,4-dichlorophenoxyacetic acid (2,4-D, […]), and agar (8 g/L agar), pH 5.6]. The media was supplemented with carbon sources as indicated in the following concentrations: maltose (83.3 mM), fructose (111 mM), sorbitol (41.2 mM), or no carbon source. After 4 weeks of dark incubation at 28° C., the callus multiplication ability in the presence of various carbon supplements or no carbon supplement was visually examined.

[2] = test system: Arabidopsis thaliana leaf and root explants; assay: Calli growth of Arabidopsis thaliana leaf and root explants in the presence of different carbon sources; type: cell-based; conditions: sole carbon source as in Example 1; 4 weeks dark incubation at 25° C.
Procedure: Growth of cultures of Arabidopsis thaliana, a model dicot species, were also examined to determine if they were able to grow in the presence of sorbitol as a sole carbon source. Leaf and root explants were excised from sterile seedlings of Arabidopsis and were plated on medium containing maltose, fructose, or sorbitol, or no carbon supplement as described in Example 1.

tobacco leaf pieces = assay: Callus induction and shoot regeneration from tobacco leaves on different sugars as sole carbon source; type: cell-based; conditions: sole carbon source: sorbitol 16 g/L, fructose 15.8 g/L; 4 weeks in tissue culture
Procedure: To test whether sorbitol dehydrogenase can be used as a positive selection marker in tobacco, pieces of tobacco leaves were tested on media containing different sugars as a sole carbon source.
Sterile grown tobacco leaves were cut into pieces of approximately 0.5-1 cm^2. Leaf pieces were transferred onto MS media containing minimal organics (MSP002 from Caisson Laboratories, North Logan, Utah, USA), 1 mg/L 6-BAP (6-benzylaminopurine) in 1N NaOH, 100 ug/L NAA (α-naphtahalene acetic acid), and the following carbon sources: no sugar; sorbitol, (16 g/L); fructose, (15.8 g/L); sucrose (30 g/L). Explants were maintained in tissue culture for 4 weeks with the following light cycle: 16 hrs in the light at 23° C.; 8 hrs in the dark at 20° C.; relative humidity approximately 45%.

tomato cells = conditions: examples of the cited Trulson patents; cited from earlier work
[3] = test system: switchgrass embryogenic callus cultures; assay: Agrobacterium-mediated transformation of switchgrass with pMBXS323 and selection on sorbitol as sole carbon source; type: cell-based; conditions: medium with sorbitol as sole carbon source; 4-6 wks in the dark at 28° C.
Procedure: Agrobacterium-mediated transformation of switchgrass was performed as previously described (Somleva et al., 2002; Somleva, 2006). Highly embryogenic callus cultures were co-cultured with Agrobacterium tumifaciens strain AGL1 (Lazo et al., 1991) harboring pMBXS323 (FIG. 2) for three days in the dark at 28° C. The Agrobacterium treated cultures were incubated on a medium without selection for three to five days and then were transferred to medium containing sorbitol as the sole carbon source. […] These portions were carefully separated from the main callus and transferred to fresh selection medium for further callus proliferation. Upon transfer to regeneration medium containing sorbitol as the sole carbon source, these calli sectors developed green pigmentation within 3-5 days and eventually formed green adventitious shoots and emblings (somatic embryo derived plantlets) (FIGS. 3a-b).

Molecule	callus multiplication ability (visually examined) [1]	callus growth of root and leaf cultures [2]	growth of tomato cells on the carbon source (tomato cells)	also measured
O=C(CO)[C@@H](O)[C@H](O)[C@H](O)CO [fructose]	able to proliferate normally and displayed considerable callus growth	considerable callus growth	–	callus generation / induction (tobacco leaf pieces): Callus induction; shoot regeneration (tobacco leaf pieces): shoot regeneration
OC[C@H]1O[C@@H](O[C@H]2[C@H](O)[C@@H](O)C(O)O[C@@H]2CO)[C@H](O)[C@@H](O)[C@H]1O (stereo partly shown) [lactose]	–	–	do not grow	–
OC[C@H]1O[C@H](O[C@H]2[C@H](O)[C@@H](O)[C@H](O)O[C@@H]2CO)[C@H](O)[C@@H](O)[C@@H]1O [maltose]	able to proliferate normally and displayed considerable callus growth	considerable callus growth	–	–
OC[C@@H](O)[C@@H](O)[C@H](O)[C@H](O)CO [mannitol]	–	–	do not grow	–
OCc1ccccc1O[C@@H]1O[C@H](CO)[C@@H](O)[C@H](O)[C@H]1O [salicin]	–	–	do not grow	–
OC[C@@H](O)[C@@H](O)[C@H](O)[C@@H](O)CO [sorbitol]	remained dormant with minimal or no incremental growth; also recorded: reduced growth	little to no growth	do not grow	callus generation / induction (tobacco leaf pieces): Inhibited callus generation; shoot regeneration (tobacco leaf pieces): inhibited shoot regeneration
OC[C@H]1O[C@H](O[C@H]2O[C@H](CO)[C@@H](O)[C@H](O)[C@H]2O)[C@H](O)[C@@H](O)[C@@H]1O [trehalose]	–	–	do not grow	–
pMBXS323: pCAMBIA3300-derived plant transformation plasmid with CaMV35S promoter, hsp70 intron and sdh gene from Pseudomonas sp. KS-E1806	–	–	–	calli clumps showing formation of new growth [3]: 30-50%
